According to paper PMC5698301, “Dual Coating of Liposomes as Encapsulating Matrix of Antimicrobial Peptides: Development and Characterization” (Frontiers in Chemistry, 2017):
Peptide text beside a SMILES is read from it.

Legend:
pepsin = conditions: in all liposomal formulations; SGF with pepsin 3.2 mg/mL, 2 h, 37 ± 0.5°C, HPLC
Description: The dissolution experiment was performed according to Liu et al. ([2012]) with some modifications. Different samples were placed in a simulated gastric fluid for 2 h (SGF: 0.2 g of NaCl dissolved in 0.7 mL of HCl and filled up to 100 ml with distilled water then pepsin was added at a concentration of 3.2 mg/mL). Then, the dissolution was performed in simulated intestinal fluid (SIF: 6.8 g of potassium phosphate monobasic sodium hydroxide with a pH adjusted to 7.4 with 2N sodium hydroxide to a volume of 100 mL and a concentration of 0.2 mg/mL bovine bile extract), the pH was adjusted to 7.4. Pancreatin was added at a concentration of 20 mg/mL (equivalent to a protease activity of 500 U/mL). The dissolution was performed for 4 h at a temperature of 37 ± 0.5°C with stirring at 140 rpm. To perform the experiment 3 ml of the individual suspensions of liposomes was added to 3 mL of gastric fluid and samples of 500 μL of medium are removed at intervals of 1 h for the gastric fluid portion and at 0, 15, 30, 60, 120, 240 min during the intestinal dissolution. The contents MccJ25 samples were determined by HPLC. […] The blank was performed in similar conditions with a solution of non-encapsulated MccJ25.

S. enteritidis = experiment: Microtitration assay (critical dilution), activity in AU; type: cell-based, Salmonella enteritidis
Description: The second activity test was carried out using the same strain (S. enteritidis) in polystyrene 96-well micro-assay plates (Microtest, Becton–Dickinson Labware, MD, USA) as described by Ennaas et al. ([2016]). Briefly, fractions were added to microplates and diluted 2-folds with LB broth. Then, wells were seeded with ~1 × 10^4 CFU of strain per well using log-phase culture diluted in LB to 0.5–1.0 × 10^6 CFU ml^−1. The plates were incubated for 18 h at 37°C. After incubation, OD at 595 nm was measured using an Infinite® F200 PRO photometer (Tecan US Inc., Durham, NC). Antimicrobial activity results were expressed as arbitrary units per milliliter (AU ml^−1) that calculated as follows:
AU ml^−1 = (1,000/100) × 2 n, where n = number of inhibited wells.

Row | Structure (SMILES) | Resistance of MccJ25 to gastric digestion (pepsin) | Specific activity (AU/mg) (S. enteritidis; activity per mg protein (Lowry method)) | Inhibitory activity (AU/ml) (S. enteritidis; microtitration assay, S. enteritidis, 2-fold dilutions in LB, 18 h at 37°C, OD 595 nm)
1 | CC[C@H](C)[C@H](NC(=O)CNC(=O)[C@@H](NC(=O)[C@H](Cc1ccccc1)NC(=O)[C@H](Cc1ccc(O)cc1)NC(=O)[C@@H]1CCC(=O)NCC(=O)NCC(=O)N[C@@H](C)C(=O)NCC(=O)N[C@@H](Cc2cnc[nH]2)C(=O)N[C@@H](C(C)C)C(=O)N2CCC[C@H]2C(=O)N1)C(C)C)C(=O)NCC(=O)N[C@H](C(=O)N1CCC[C@H]1C(=O)N[C@H](C(=O)N[C@@H](CO)C(=O)N[C@@H](Cc1ccccc1)C(=O)N[C@@H](Cc1ccc(O)cc1)C(=O)NCC(=O)O)[C@@H](C)CC)[C@@H](C)O [MccJ25, microcin J25] (HELM PEPTIDE1{G.G.A.G.H.V.P.E.Y.F.V.G.I.G.T.P.I.S.F.Y.G}$PEPTIDE1,PEPTIDE1,1:R1-8:R3$$$V2.0) | resisted gastric digestion |  | 
2 | CC[C@H](C)[C@H](NC(=O)CNC(=O)[C@@H](NC(=O)[C@H](Cc1ccccc1)NC(=O)[C@H](Cc1ccc(O)cc1)NC(=O)[C@@H]1CCC(=O)NCC(=O)NCC(=O)N[C@@H](C)C(=O)NCC(=O)N[C@@H](Cc2c[nH]cn2)C(=O)N[C@@H](C(C)C)C(=O)N2CCC[C@H]2C(=O)N1)C(C)C)C(=O)NCC(=O)N[C@H](C(=O)N1CCC[C@H]1C(=O)N[C@H](C(=O)N[C@@H](CO)C(=O)N[C@@H](Cc1ccccc1)C(=O)N[C@@H](Cc1ccc(O)cc1)C(=O)NCC(=O)O)[C@@H](C)CC)[C@@H](C)O [MccJ25, microcin J25] (HELM PEPTIDE1{G.G.A.G.H.V.P.E.Y.F.V.G.I.G.T.P.I.S.F.Y.G}$PEPTIDE1,PEPTIDE1,1:R1-8:R3$$$V2.0; C-terminus assumed; bridges inferred) |  | 181,352 AU/mg | 524,288 AU/ml
